Assay results reported in PubChem BioAssay AID1963441 (Molecular Pharmacology Branch, DTP, NCI, 2024).
pIC50: −log10 of the molar value.

Test system: NCI-H1876 complex spheroid growth, % test/control
Test: Anticancer human tumor NCI-H1876 cell line growth inhibition [Asc];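 further: compound exposure lasted 7 days starting three days after seeding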;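 on viability, T/C: 100% = DMSO vehicle control wells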
Conditions: for pIC50: curve of first compound; for viability, T/C: stronger effect = lower value; active means viability on the fitted dose curve at most 10% of control; inactive means the rest
Experimental: Multicellular complex tumor spheroid response to apoptosis pathway targeting inhibitors Alrizomadlin, Pelcitoclax, and Dasminapant in combination with a variety of drugs and investigational agents in selected tumor cell lines
The MDM2 inhibitor alrizomadlin, the Bcl-2/Bcl-xL inhibitor pelcitoclax, and the IAPs inhibitor dasminapant were evaluated both individually and in combination with standard of care and investigational anticancer small molecules within a complex spheroid model of solid tumors. . Complex spheroids include a stromal component modeled by human endothelial cells (HUVEC) and fibroblasts modeled by human mesenchymal stem cells (MSCs). The concentration ranges selected for each drug and investigational agent were based upon clinically achievable concentrations if the clinical Cmax of the agent was known.
Compounds. The drugs and investigational agents: alrizomadlin (APG-115; NSC831270), pelcitoclax (APG-1252; NSC835773), dasminapant (APG-1387;NSC834197), TAK-243 (NSC785004), copanlisib (NSC809693), olaparib (NSC753686), talazoparib (NSC767125), cobimetinib (NSC 768068), eltanexor (KPT-8602, NSC 794443), abemaciclib (NSC 768073), sotorasib (NSC818433), adagrasib (NSC 831453), MRTX-1133 (NSC 836407), Iadademestat (ORY1001, NSC 806812), and RMC-4630 (NSC839698), were obtained from the NCI Developmental Therapeutics Program Chemical Repository. The FDA-approved anticancer drug set is available from the Developmental Therapeutics Program at https://dtp.cancer.gov/organization/dscb/obtaining/available plates.htm. […] The stock solutions were prepared in dimethyl sulfoxide (DMSO, Sigma-Aldrich, St. Louis, MO, cat. D2650) at 800-fold the tested concentration and stored at -70 degrees C prior to their use. All drugs and investigational agents were tested over a range starting from a high concentration at or near the clinical Cmax and decreasing in half-log increments. If the clinical Cmax for an agent had not been determined, the highest concentration tested was 10 microM.
The patient-derived cancer (PDC) cell lines include five colon adenocarcinomas: 186277-243-T-J2-PDC, 616215-338-R-J1-PDC, 439559-082-T-J2-PDC, 463943-066-T-J2-PDC, and 519858-162-T-J1-PDC; three pancreatic carcinomas: 323965-272-R-J2-PDC, 521955-158-R6-J3-PDC, and 521955-158-R2-J5-PDC; two uterine sarcomas: 327498-152-R-J2-PDC and 993429-296-R-J1-PDC; two rhabdomyosarcomas: 755483-174-R-J1-PDC and 772245-204-R-J1-PDC; two soft tissue sarcomas: 126254-015-R-J1-PDC and 494315-158-R-J1-PDC; two malignant fibrous histiocytomas: 317291-083-R-J1-PDC and 596521-263-R-J1-PDC; two breast carcinomas: 171881-019-R-J1-PDC and 885512-296-R-J2-PDC; and one ovarian carcinoma: 6556581-035-R-J-PDC were obtained from the NCI PDMR, (https://pdmr.cancer.gov). The established cell lines HSSY-2 synovial sarcoma (RRID:CVCL 8719), SYO-1 synovial sarcoma (RRID:CVCL_7146), MPNST malignant peripheral neural sheath tumor were obtained from the Sloan Kettering Institute. The following established cell lines were purchased from the American Type Culture Collection (ATCC, Manassas, VA), Sor the received from the NCI repository:, PANC-1 pancreatic carcinoma (CRL-1469, RRID:CVCL_0480), OVCAR-5 ovarian carcinoma (RRID:CVCL_1628), OVCAR-8 ovarian carcinoma (RRID:CVCL_1629), , MCF-7 breast carcinoma (CRL-12584, RRID:CVCL_0031), MDA-MB-231 breast carcinoma (CRL-12532, RRID:CVCL_0062), NCI-H1876 small cell lung carcinoma (CRL-5902, RRID:CVCL_1503), NCI-H510A small cell lung carcinoma (HTB-184, RRID:CVCL_1565), NCI-H1417 (CRL-5869, RRID:CVCL_1469), and NCI-H196 small cell lung carcinoma (CRL-5823, RRID:CVCL_1509). Dr. Peter Houghton (Greehey Children's Cancer Research Institute, University of Texas Health Science Center, San Antonio, TX) provided Rh-18 rhabdomyosarcoma (RRID:CVCL_1659). Pooled donor human umbilical vein endothelial cells (HUVEC, Lonza, cat. CC-2519) and human mesenchymal stem cells (hMSC, Lonza, cat. PT-2501) were purchased from Lonza (Walkersville, MD).
Cell Culture. […]

[1] = second compound 0.00949 µM, first compound 0.0316 µM
[2] = second compound 0.00949 µM, first compound 0.1 µM
[3] = second compound 0.00949 µM, first compound 0.316 µM
[4] = second compound 0.00949 µM, first compound 1 µM
[5] = second compound 0.03 µM, first compound 0.0316 µM
[6] = second compound 0.03 µM, first compound 0.1 µM
[7] = second compound 0.03 µM, first compound 0.316 µM
[8] = second compound 0.03 µM, first compound 1 µM
[9] = second compound 0.0949 µM, first compound 0.0316 µM
[10] = second compound 0.0949 µM, first compound 0.1 µM
[11] = second compound 0.0949 µM, first compound 0.316 µM
[12] = second compound 0.0949 µM, first compound 1 µM
[13] = second compound 0.3 µM, first compound 0.0316 µM
[14] = second compound 0.3 µM, first compound 0.1 µM
[15] = second compound 0.3 µM, first compound 0.316 µM
[16] = second compound 0.3 µM, first compound 1 µM
[17] = second compound 0.949 µM, first compound 0.0316 µM
[18] = second compound 0.949 µM, first compound 0.1 µM
[19] = second compound 0.949 µM, first compound 0.316 µM
[20] = second compound 0.949 µM, first compound 1 µM
[21] = second compound 3 µM, first compound 0.0316 µM
[22] = second compound 3 µM, first compound 0.1 µM
[23] = second compound 3 µM, first compound 0.316 µM
[24] = second compound 3 µM, first compound 1 µM

C#Cc1c(F)ccc2cc(O)cc(-c3ncc4c(N5CC6CCC(C5)N6)nc(OCC56CCCN5CC(F)C6)nc4c3F)c12 (centres undefined) + CCN1C(C(=O)NC23CCC(C(=O)O)(CC2)CC3)C(c2cccc(Cl)c2F)C2(C(=O)Nc3cc(Cl)ccc32)C12CCCCC2
inactive: viability, T/C [1] 89.2% | viability, T/C [2] 97.2% | viability, T/C [3] 98.5% | viability, T/C [4] 95.6% | viability, T/C (second compound 0.00949 µM, first compound 3.16 µM) 98.1% | viability, T/C (second compound 0.00949 µM, first compound 10 µM) 87.1% | viability, T/C [5] 94.8% | viability, T/C [6] 106% | viability, T/C [7] 98.5% | viability, T/C [8] 103% | viability, T/C (second compound 0.03 µM, first compound 3.16 µM) 95.3% | viability, T/C (second compound 0.03 µM, first compound 10 µM) 89.8% | viability, T/C [9] 101% | viability, T/C [10] 112% | viability, T/C [11] 102% | viability, T/C [12] 97.7% | viability, T/C (second compound 0.0949 µM, first compound 3.16 µM) 96.3% | viability, T/C (second compound 0.0949 µM, first compound 10 µM) 88.4% | viability, T/C [13] 105% | viability, T/C [14] 106% | viability, T/C [15] 114% | viability, T/C [16] 99.8% | viability, T/C (second compound 0.3 µM, first compound 3.16 µM) 96.5% | viability, T/C (second compound 0.3 µM, first compound 10 µM) 99.5% | viability, T/C [17] 118% | viability, T/C [18] 120% | viability, T/C [19] 104% | viability, T/C [20] 112% | viability, T/C (second compound 0.949 µM, first compound 3.16 µM) 116% | viability, T/C (second compound 0.949 µM, first compound 10 µM) 95% | viability, T/C [21] 97.4% | viability, T/C [22] 88% | viability, T/C [23] 85.2% | viability, T/C [24] 96.9% | viability, T/C (second compound 3 µM, first compound 3.16 µM) 102% | viability, T/C (second compound 3 µM, first compound 10 µM) 79.2%
< 5.00: pIC50 (second compound 0.00949 µM) | pIC50 (second compound 0.03 µM) | pIC50 (second compound 0.0949 µM) | pIC50 (second compound 0.3 µM) | pIC50 (second compound 0.949 µM) | pIC50 (second compound 3 µM)

CCN1CCN(Cc2ccc(Nc3ncc(F)c(-c4cc(F)c5nc(C)n(C(C)C)c5c4)n3)nc2)CC1 + CCN1C(C(=O)NC23CCC(C(=O)O)(CC2)CC3)C(c2cccc(Cl)c2F)C2(C(=O)Nc3cc(Cl)ccc32)C12CCCCC2
< 6.00: pIC50 (second compound 0.00949 µM) | pIC50 (second compound 0.03 µM) | pIC50 (second compound 0.0949 µM) | pIC50 (second compound 0.3 µM) | pIC50 (second compound 0.949 µM) | pIC50 (second compound 3 µM)
inactive: viability, T/C (second compound 0.00949 µM, first compound 0.00316 µM) 103% | viability, T/C (second compound 0.00949 µM, first compound 0.01 µM) 100% | viability, T/C [1] 106% | viability, T/C [2] 115% | viability, T/C [3] 115% | viability, T/C [4] 129% | viability, T/C (second compound 0.03 µM, first compound 0.00316 µM) 102% | viability, T/C (second compound 0.03 µM, first compound 0.01 µM) 102% | viability, T/C [5] 96.1% | viability, T/C [6] 113% | viability, T/C [7] 123% | viability, T/C [8] 133% | viability, T/C (second compound 0.0949 µM, first compound 0.00316 µM) 105% | viability, T/C (second compound 0.0949 µM, first compound 0.01 µM) 95.9% | viability, T/C [9] 117% | viability, T/C [10] 109% | viability, T/C [11] 116% | viability, T/C [12] 127% | viability, T/C (second compound 0.3 µM, first compound 0.00316 µM) 103% | viability, T/C (second compound 0.3 µM, first compound 0.01 µM) 105% | viability, T/C [13] 102% | viability, T/C [14] 113% | viability, T/C [15] 123% | viability, T/C [16] 129% | viability, T/C (second compound 0.949 µM, first compound 0.00316 µM) 110% | viability, T/C (second compound 0.949 µM, first compound 0.01 µM) 114% | viability, T/C [17] 106% | viability, T/C [18] 114% | viability, T/C [19] 131% | viability, T/C [20] 122% | viability, T/C (second compound 3 µM, first compound 0.00316 µM) 113% | viability, T/C (second compound 3 µM, first compound 0.01 µM) 99.2% | viability, T/C [21] 109% | viability, T/C [22] 108% | viability, T/C [23] 116% | viability, T/C [24] 111%
